Earlier results in PMC10920834, “Synthesis, anticancer activity, and molecular docking of half-sandwich iron(II) cyclopentadienyl complexes with maleimide and phosphine or phosphite ligands” (Scientific Reports, 2024).

Tested on: PBM cells
Settings: cited from earlier work

## O=C1C=CC(=O)[N-]1.[C-]#[O+].[Ru+2].c1cc[cH-]c1.c1ccc(P(c2ccccc2)c2ccccc2)cc1 [2a-Ru]
  cytotoxicity toward PBM cells of ruthenium analogues, in words: non-toxic
